Test results reported in patent US11214803B2, “Modulators of YAP1 expression” (Ionis Pharmaceuticals, Inc., priority 2019, dated 2022).
Several values for one entry are separate records, joined by “and”; a condition that tells them apart may be missing. Equal entries are not always repeated. Strand notation (5' to 3'): a small letter for the sugar, then the base; units joined by * are phosphorothioate-linked, units joined directly phosphodiester-linked; [ ] holds rarer units or linkages, { } end groups; capitals alone tell only the bases. k = constrained ethyl (cEt); [5mC] = 5-methylcytosine; d = 2'-deoxy (DNA)

Key:
[1] = system: Yap1 mRNA; test: Dose-dependent inhibition of human Yap1 in SNU-449 cells (Example 9, RTS36584); format: cell-based; settings: free uptake; for % UTC (Yap1 mRNA): approximately 48 hours; for IC50: linear regression on a log/linear plot
Method in brief: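 SNU-449 cells (10,000/well) took up modified oligonucleotides by free uptake at a range of doses for about 48 h. Yap1 mRNA was quantified with primer-probe set RTS36584, normalised to RIBOGREEN total RNA and expressed as % untreated control; IC50 from linear regression on log/linear plot.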

[2] = system: Yap1 mRNA; test: Inhibition of human Yap1 mRNA in SNU449 hepatocellular carcinoma xenograft tumors (Example 26); format: in vivo; settings: SNU449 xenografts in NSG mice, 50 mg/kg twice weekly for five days, relative to PBS treated animals
Method in brief: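 Female NSG mice bearing subcutaneous SNU449 xenografts (about 100 mm^3) dosed with modified oligonucleotides at 50 mg/kg twice weekly for five days, four per group. Tumour Yap1 mRNA measured by RT-qPCR, normalized to actin-beta, expressed as % of PBS-treated controls.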

[3] = system: Yap1 mRNA; test: Yap1 mRNA in SCC25 cells, RNA analysis (Example 25); format: cell-based, human; settings: free uptake, 48 hours, RTS4814, normalized to actin-beta
Protocol: Modified oligonucleotides described in the studies above were tested at various doses in squamous cell carcinoma cell SCC25. A control oligonucleotide 792169 (a 3-10-3 cET gapmer with a full phosphorothioate backbone, […], designated herein as SEQ ID No.: 2940; is not complementary to any known human gene) was also tested.
Cultured SCC25 cells at a density of 5,000 cells per well were treated using free uptake with modified oligonucleotides diluted to concentrations described in the tables below. After approximately 48 hours, Yap1 mRNA levels were measured as previously described using the Human Yap1 primer-probe set RTS4814. Yap1 mRNA levels were normalized to actin-beta content, as measured by primer probe set RTS5002 (forward sequence […], designated herein as SEQ ID NO.: 20; reverse sequence […], designated herein as SEQ ID NO.: 21; probe sequence […], designated herein as SEQ ID NO.: 22). Results are presented in the tables below as percent control of the amount of Yap1 mRNA relative to untreated control cells (% UTC).

[4] = system: Yap1 mRNA; test: Inhibition of human Yap1 mRNA in squamous cell carcinoma CAL27 xenograft tumors (Example 28); format: in vivo; settings: CAL27 xenografts in NCr-Foxn1nu mice, relative to PBS treated
Protocol: A squamous cell carcinoma CAL27 xenograft tumor model was used to evaluate activity of modified oligonucleotides targeted to human Yap1. Five million CAL27 cells in 30% matrigel were implanted subcutaneously into the flanks of female CrTac:NCr-Foxn1nu mice (from Taconic) at 4-6 weeks of age. Groups of four mice each were administered with either 15 mg/kg or 30 mg/kg of modified oligonucleotides daily for five days after tumor size had reached ˜100 mm^3 (about 3 weeks post implantation). Tumors were collected and tested for Yap1 mRNA knockdown by RT-qPCR. Yap1 mRNA levels were measured as previously described using the Human Yap1 primer-probe set RTS4814. Yap1 mRNA levels were normalized to actin-beta content, as measured by primer probe set RTS5002. Results are presented in the tables below as percent control of the amount of Yap1 mRNA relative to PBS treated […].

[5] = Cynomolgus monkey tolerability, hematology (Example 34); format: in vivo, cynomolgus monkeys; settings: for BAS / EOS / HCT / HGB / LUC / LYM / MCH / MCHC / MCV / MON / NEU / PLT / RBC / RCDW / Retic / WBC: cynomolgus monkey, in vivo, sc, 35 mg/kg; for MPV: cynomolgus monkeys, 35 mg/kg subcutaneously, day 44
Protocol: To evaluate any effect of Ionis oligonucleotides in cynomolgus monkeys on hematologic parameters, blood samples of approximately 0.5 mL of blood was collected from each of the available study animals on day 44. The samples were collected in tubes containing K2-EDTA. Samples were analyzed for red blood cell (RBC) count, Hemoglobin (HGB), Hematocrit (HCT), Mean corpuscular volume (MCV), mean corpuscular hemoglobin (MCH), mean corpuscular hemoglobin concentration (MCHC), RBC Distribution Width (RCDW), reticulocyte count (Retic), platelet count (PLT), mean platelet volume (MPV), white blood cells (WBC) count, individual white blood cell counts, such as that of monocytes (MON), neutrophils (NEU), lymphocytes (LYM), eosinophils (EOS), basophils (BAS), and large unstained cells (LUC) using an ADVIA2120i hematology analyzer (Siemens, USA).

[6] = cynomolgus monkey, in vivo, sc, 35 mg/kg
Protocol: Prior to the study, the monkeys were kept in quarantine during which the animals were observed daily for general health. The monkeys were 2-4 years old and weighed 2-4 kg. Eleven groups of 4 randomly assigned male cynomolgus monkeys each were injected subcutaneously with Ionis oligonucleotide or saline in a clock-wise rotation between four different sites on the back. Following loading doses on days 1, 3, 5 and 7, the monkeys were dosed once per week (on days 14, 21, 28, 35, and 42) with 35 mg/kg of Ionis oligonucleotide.
To evaluate the effect of Ionis oligonucleotides on hepatic and kidney function, blood samples were collected from all the study groups on day 44. The monkeys were fasted overnight prior to blood collection. Blood was collected in tubes without anticoagulant for serum separation. The tubes were kept at room temperature for a minimum of 90 minutes and then centrifuged at 3000 rpm for 10 minutes to obtain serum. Levels of various liver function markers were measured using a Toshiba 200FR NEO chemistry analyzer (Toshiba Co., Japan).

Substance	% UTC (Yap1 mRNA) ([1]; 125.0 nM)	IC50 [1]	Yap1 mRNA in tumors, % control [2]	% UTC (Yap1 mRNA) ([1]; 31.3 nM)	% UTC (Yap1 mRNA) ([1]; 500.0 nM)	% UTC (Yap1 mRNA) ([1]; 2000.00 nM)	Yap1 mRNA, % UTC ([3]; 0.04 μM)	Yap1 mRNA, % UTC ([3]; 0.2 μM)	Yap1 mRNA, % UTC ([3]; 1 μM)	Yap1 mRNA, % UTC ([3]; 5 μM)	Yap1 mRNA in tumors, % UTC ([4]; 15 mg/kg daily for five days)	Yap1 mRNA in tumors, % UTC ([4]; 30 mg/kg daily for five days)	BAS [5]	EOS [5]	HCT [5]	HGB [5]	LUC [5]	LYM [5]	MCH [5]	MCHC [5]	further results
715487 (kA*kT*kT*dA*d[5mC]*dT*dT*d[5mC]*dA*dT*dA*dG*d[5mC]*kT*kT*kA) [compound 715487]	47 % UTC and 44 % UTC and 56 % UTC and 53 % UTC and 73 % UTC and 70 % UTC and 62 % UTC and 48 % UTC	400 nM and 300 nM and 200 nM	61 % control	–	–	–	–	–	–	–	–	–	–	–	–	–	–	–	–	–	–
1076453 (GTAATATTGCAATCTG; 3-10-3 cEt gapmer, further chemistry not given here) [compound 1076453]	29 % UTC	100 nM	56 % control	67 % UTC	8 % UTC	1 % UTC	59 % UTC	21 % UTC	7 % UTC	3 % UTC	69 % UTC	46 % UTC	0.4%	1.1%	43%	13 g/dL	1.2%	54%	23 pg	29 g/dL	MCV [5]: 79 fL; MON [5]: 3.9%; NEU [5]: 39%; PLT [5]: 358 10^3/μL; RBC [5]: 5.5e+06 µL⁻¹; RCDW [5]: 15%; Retic [5]: 1.2%; WBC [5]: 10000 µL⁻¹; MPV [5]: 8.4 fL; A/G ratio [6]: 1.3
958499 (ATTAGAGTATGTGGCA; 3-10-3 cEt gapmer, further chemistry not given here) [compound 958499]	47 % UTC	200 nM	54 % control	93 % UTC	19 % UTC	7 % UTC	47 % UTC	22 % UTC	10 % UTC	4 % UTC	68 % UTC	53 % UTC	0.4%	1.1%	43%	12 g/dL	1.2%	44%	22 pg	29 g/dL	MCV [5]: 77 fL; MON [5]: 3.5%; NEU [5]: 49%; PLT [5]: 399 10^3/μL; RBC [5]: 5.6e+06 µL⁻¹; RCDW [5]: 12%; Retic [5]: 1.5%; WBC [5]: 12000 µL⁻¹; MPV [5]: 7.6 fL; A/G ratio [6]: 1.3
CGCCGATAAGGTACAC (cEt gapmer, phosphorothioate backbone, further chemistry not given here) [ION 792169, reference compound]	–	–	–	–	–	–	96 % UTC	89 % UTC	93 % UTC	98 % UTC	–	–	–	–	–	–	–	–	–	–	–
1198439 (AGTGTATGTCAGAAGA; sugar, 5-methylcytosine, phosphorothioate modifications, further chemistry not given here) [compound 1198439]	21 % UTC	< 30 nM	51 % control	44 % UTC	5 % UTC	2 % UTC	35 % UTC	12 % UTC	5 % UTC	3 % UTC	66 % UTC	38 % UTC	0.3%	1.5%	48%	14 g/dL	0.6%	68%	22 pg	28 g/dL	MCV [5]: 79 fL; MON [5]: 2.9%; NEU [5]: 27%; PLT [5]: 367 10^3/μL; RBC [5]: 6e+06 µL⁻¹; RCDW [5]: 12%; Retic [5]: 1.2%; WBC [5]: 10300 µL⁻¹; MPV [5]: 7.6 fL; A/G ratio [6]: 1.4
1198440 (AAGTGTATGTCAGAAG; cEt, 2'-MOE, 5-methylcytosine, phosphorothioate modifications, further chemistry not given here) [compound 1198440]	23 % UTC	< 30 nM	51 % control	55 % UTC	6 % UTC	2 % UTC	39 % UTC	14 % UTC	5 % UTC	3 % UTC	67 % UTC	41 % UTC	0.4%	2.8%	47%	14 g/dL	0.7%	65%	23 pg	29 g/dL	MCV [5]: 80 fL; MON [5]: 3.2%; NEU [5]: 28%; PLT [5]: 420 10^3/μL; RBC [5]: 5.9e+06 µL⁻¹; RCDW [5]: 12%; Retic [5]: 1.2%; WBC [5]: 10900 µL⁻¹; MPV [5]: 7.5 fL; A/G ratio [6]: 1.4
